Data set [1] in a line: Distribution coefficient (logD7.4), shake-flask n-octanol/buffered water. The class given is physicochemical. The conditions noted are these: n-octanol/phosphate buffered saline pH 7.4, shake-flask. On the procedure: The n-octanol-water coefficients of the phosphane derivatives were determined as previously reported using a shake-flask method. Briefly: Buffered-saline distilled water (100 mL, phosphate buffer [PO4^3−] = 10 mM, [NaCl] = 0.15 M, pH 7.4) and n-octanol (100 mL) were shaken together for 72 h to allow saturation of both phases. 1 mg of the complexes was dissolved in 5 mL of the aqueous phase and 5 mL of the organic phase were added, mixing for 10 min. The concentration of the complexes in the organic and aqueous phases were then determined using UV absorbance spectroscopy. LogD7.4 = log{[compound(organic phase)]/[compound(aqueous phase)]}.
The lipophilicity can be measured by the partition coefficient water/n-octanol, logD, by experimental procedures such as the shake flask method, which affords the distribution of the drug between an equal amount of n-octanol and water (or buffered aqueous solution).

A further data set concerns Caco-2/TC7 cells. Description: MTT cytotoxicity / antiproliferative assay on Caco-2/TC7 cells. Format: cell-based, human. On the procedure: Human fibroblast cells were kindly provided by Dr. Julio Montoya (Unidad de Bioquímica, Facultad de Veterinaria, Universidad de Zaragoza, Spain). Caco-2 cells (passages 40–70) and fibroblasts (passages 10–30) were maintained in a humidified atmosphere of 5% CO2 at 37 °C. Cells were grown in Dulbecco’s Modified Eagles medium (DMEM) (Gibco Invitrogen, Paisley, UK) supplemented with 20% fetal bovine serum (FBS), 1% non-essential amino acids, 1% penicillin (1000 U/mL), 1% streptomycin (1000 μg/mL) and 1% amphotericin (250 U/mL). […] Caco-2 cells were sub-cultured on 25 cm^2 plastic flasks at a density of 1.2 × 10^4 cells/cm^2, while fibroblasts were sub-cultured on 75 cm^2 plastic flasks at a density of 1 × 10^4 cells/cm^2. Culture medium was replaced every 2 days.
(§1) Gold complex was diluted in dimethyl sulfoxide (DMSO) to a stock solution at 20 mM and then re-diluted to a working solution at 2.5 mM before diluting it in cell culture medium to treat cells at desired concentrations.
The influence of hyperthermia was studied by incubating cells at 40 °C for 1 h immediately after treating them with the gold complexes.
For cytotoxicity screening assays, Caco-2 cells were seeded in 96-well plates at a density of 4 × 10^3 cells/well. Culture medium was replaced with medium containing drug panel 24 h post-seeding and cells were incubated for 72 h. In fibroblasts, culture medium containing metal gold complexes was added 10 days post-seeding. Antiproliferative effect was measured with MTT assay as previously described by Mármol et al.. […] To determine the selectivity index (SI) the IC50 value in fibroblasts was divided by IC50 value in Caco-2, obtaining a ratio cancerous/normal cells toxicity.

The target of a further data set is T1, Recombinant Human TrxR1 (Homo sapiens, UniProt Q16881).
T1 construct: purchased Sigma-Aldrich SRP6081
T1 sequence (Q16881 151-649 limits assumed): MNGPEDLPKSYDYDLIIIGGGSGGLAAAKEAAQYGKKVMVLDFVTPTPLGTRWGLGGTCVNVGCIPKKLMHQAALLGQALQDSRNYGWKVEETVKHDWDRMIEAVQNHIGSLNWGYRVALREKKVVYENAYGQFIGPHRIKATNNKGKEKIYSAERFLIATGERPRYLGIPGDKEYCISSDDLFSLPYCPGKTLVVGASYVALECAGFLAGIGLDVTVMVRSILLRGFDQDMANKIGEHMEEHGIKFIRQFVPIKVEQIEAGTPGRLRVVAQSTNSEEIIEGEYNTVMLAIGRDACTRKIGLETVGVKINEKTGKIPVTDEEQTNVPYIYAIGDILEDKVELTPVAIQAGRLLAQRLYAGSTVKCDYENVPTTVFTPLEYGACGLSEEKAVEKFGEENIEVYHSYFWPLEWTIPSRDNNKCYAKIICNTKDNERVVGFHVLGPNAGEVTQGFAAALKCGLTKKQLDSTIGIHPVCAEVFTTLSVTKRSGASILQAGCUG
Description: Thioredoxin reductase 1 (TrxR1) activity assay. The class given is biochemical. The conditions noted are these: auranofin 25 µM; 3a and 3b at IC50 concentrations. On the procedure: Recombinant Human TrxR1 (Sigma-Aldrich SRP6081, St. Louis, MO, USA) was incubated in a 96 well plate with different concentration of Au complex previously dissolved in 25 μL of PBS at pH 7.4. The cell solution was incubated in shake motion for 5 min at 37 °C. After incubation time, procedure in Thioredoxin Reductase Assay Kit (Sigma-Aldrich CS0170, St. Louis, MO, USA) was followed. Finally, reaction was started by adding 6 μL DNTB and absorbance at 405 nm was recorded every 30 s for 22 min as a measure of Thioredoxin Reductase Activity.

In the next data set the test system is Human fibroblast cells. Description: MTT cytotoxicity assay on fibroblasts. The note with it: for fibroblasts viability when treated at the IC50 value in Caco-2: 3a 2.5 µM, 3b 5.1 µM, 2a 12.3 µM, 2b 10.5 µM; for IC50: MTT, mean ± SE. Format: cell-based. On the procedure:
Human Caco-2 cell line (TC7 clone) was kindly provided by Dr. Edith Brot-Laroche (Université Pierre et Marie Curie-Paris 6, UMR S 872, Les Cordeliers, France). Human fibroblast cells were kindly provided by Dr. Julio Montoya (Unidad de Bioquímica, Facultad de Veterinaria, Universidad de Zaragoza, Spain). Caco-2 cells (passages 40–70) and fibroblasts (passages 10–30) were maintained in a humidified atmosphere of 5% CO2 at 37 °C. Cells were grown in Dulbecco’s Modified Eagles medium (DMEM) (Gibco Invitrogen, Paisley, UK) supplemented with 20% fetal bovine serum (FBS), 1% non-essential amino acids, 1% penicillin (1000 U/mL), 1% streptomycin (1000 μg/mL) and 1% amphotericin (250 U/mL). The cells were passaged enzymatically with 0.25% trypsin-1 mM EDTA. Caco-2 cells were sub-cultured on 25 cm^2 plastic flasks at a density of 1.2 × 10^4 cells/cm^2, while fibroblasts were sub-cultured on 75 cm^2 plastic flasks at a density of 1 × 10^4 cells/cm^2. Culture medium was replaced every 2 days.
as §1
For cytotoxicity screening assays, Caco-2 cells were seeded in 96-well plates at a density of 4 × 10^3 cells/well. Culture medium was replaced with medium containing drug panel 24 h post-seeding and cells were incubated for 72 h. In fibroblasts, culture medium containing metal gold complexes was added 10 days post-seeding. Antiproliferative effect was measured with MTT assay as previously described by Mármol et al.. Absorbance at 540/620 nm was measured with SPECTROstar Nano (BMG Labtech). To determine the selectivity index (SI) the IC50 value in fibroblasts was divided by IC50 value in Caco-2, obtaining a ratio cancerous/normal cells toxicity.
On the technique in general: Formazan colour is commonly taken as a measure of viable cells.

The mark [2] stands for this setting: 72 h, MTT, 37 °C, mean ± SE, read-out: IC50 Caco-2/TC7 37 °C.
[3] abbreviates: read-out: IC50 Caco-2/TC7 40 °C, 72 h, MTT, 1 h at 40 °C immediately after treatment (hyperthermia), mean ± SE.
Where [4] appears, read: Homo sapiens, Caco2/TC7, read-out: IC50 Caco-2/TC7 40 °C.

The source of these data is PMC8698759, “Gold(I) Complexes Bearing Alkylated 1,3,5-Triaza-7-phosphaadamantane Ligands as Thermoresponsive Anticancer Agents in Human Colon Cells” (Biomedicines, 2021).

Where two headings read alike, the source gives them in different places.

Molecule `FC(F)(F)C(F)(F)C(F)(F)C(F)(F)C(F)(F)C(F)(F)CC[N+]12CN3CN(C1)C[PH]([Au][Cl])(C3)C2.O=S(=O)([O-])C(F)(F)F` [Complex 1b, [AuCl(PTA-CH2CH2(CF2)5CF3)]TfO] returned a logD7.4 in data set [1] of 0.63. In addition, the IC50 with Caco-2/TC7 cells (setting [2]) worked out at 5.98 ± 1.8 µM; with Caco-2/TC7 cells (setting [3]), 4.46 ± 0.79 µM.
As for `CC(=O)OC[C@H]1O[C@@H]([S-])[C@H](OC(C)=O)[C@@H](OC(C)=O)[C@@H]1OC(C)=O.CCP(CC)CC.[Au+]` [auranofin, reference compound], the “TrxR1 activity related to control” value at Recombinant Human TrxR1 is “Inhibitory effect”.
Molecule `FC(F)(F)C(F)(F)C(F)(F)C(F)(F)C(F)(F)C(F)(F)CC[N+]12CN3CN(C1)C[P+]([Au-2]([Cl])[P+]14CN5CN(C[N+](CCC(F)(F)C(F)(F)C(F)(F)C(F)(F)C(F)(F)C(F)(F)F)(C5)C1)C4)(C3)C2.O=S(=O)([O-])C(F)(F)F.O=S(=O)([O-])C(F)(F)F` [Complex 2b, [AuCl(PTA-CH2CH2(CF2)5CF3)2](TfO)2] gave a logD7.4 in data set [1] of 0.82. Also, the IC50 in the data set on Caco-2/TC7 cells (setting [2]) was found to be 10.7 ± 0.6 µM; in the data set on Caco-2/TC7 cells (setting [3]) it was 9 ± 0.39 µM; in the data set on Human fibroblast cells it was 11.6 ± 1.05 µM. Also, in the data set on Human fibroblast cells, the “fibroblasts viability when treated at the IC50 value in Caco-2” value is on record as “nearly two-fold reduction in the viability of fibroblasts”.
Consider `CCCCCCCC[N+]12CN3CN(C1)C[P+]([Au-2]([Cl])[P+]14CN5CN(C[N+](CCCCCCCC)(C5)C1)C4)(C3)C2.[I-].[I-]` [Complex 2a, [AuCl(PTA-CH2(CH2)6CH3)2]I2], for which the logD7.4 in data set [1] is −0.12. For the same molecule, the IC50 with Caco-2/TC7 cells (setting [2]) was determined as 12.3 ± 1.18 µM; in the data set with Caco-2/TC7 cells (setting [3]) it was 10.4 ± 0.51 µM; in the data set with Human fibroblast cells it was 13.5 ± 0.97 µM. Moreover, the “fibroblasts viability when treated at the IC50 value in Caco-2” value with Human fibroblast cells was “nearly two-fold reduction in the viability of fibroblasts”. Besides, the “Selectivity Index (SI)” value with Human fibroblast cells (IC50 fibroblasts/IC50 Caco-2) is on record as 1.09.
As for `FC(F)(F)C(F)(F)C(F)(F)C(F)(F)C(F)(F)C(F)(F)CC[N+]12CN3CN(CP(C3)C1)C2` [Lb, [PTA-CH2CH2(CF2)5CF3]TfO], the figures for the IC50 in the data set with Caco-2/TC7 cells and in the data set on Caco-2/TC7 cells (setting [4]) were 27.2 ± 7.56 µM and 24 ± 6.6 µM, respectively.
On to `CCCCCCCC[N+]12CN3CN(CP(C3)C1)C2` [La, [PTA-CH2(CH2)6CH3]I], for which the IC50 in the data set with Caco-2/TC7 cells was determined as 49.32 ± 0.02 µM; with Caco-2/TC7 cells (setting [4]) it was 47.1 ± 0.92 µM.
